The record followed here is article PMC3754872 (The Journal of Experimental Medicine, 2013).

Assay [1] deals with T1, CXCR2 (Mus musculus, UniProt P35343).
T1 sequence (P35343 1-359): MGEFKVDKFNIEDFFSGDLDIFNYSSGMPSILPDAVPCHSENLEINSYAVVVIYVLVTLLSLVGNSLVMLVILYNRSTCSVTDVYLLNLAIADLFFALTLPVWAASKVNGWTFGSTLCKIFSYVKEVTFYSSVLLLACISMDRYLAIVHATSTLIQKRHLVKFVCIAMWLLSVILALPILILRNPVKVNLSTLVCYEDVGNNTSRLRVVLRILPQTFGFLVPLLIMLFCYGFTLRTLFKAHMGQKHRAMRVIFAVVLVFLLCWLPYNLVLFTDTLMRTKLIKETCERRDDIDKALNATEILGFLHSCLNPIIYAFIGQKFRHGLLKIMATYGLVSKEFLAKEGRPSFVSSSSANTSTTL
The assay is described as follows: displacement of […]-IL-8 from CXCR2-expressing L1.[…] cells. The class given is binding.

The target of assay [2] is T1, CXCR2. Put plainly: inhibition of agonist-stimulated. The assay is classed as biochemical.

For orientation: EC50 means the midpoint of the concentration-response curve. The term IC50 denotes the point on the concentration scale where inhibition reaches its midpoint. Higher therefore signals a need for much substance.

In turn, `CC(C)CCC(O)[C@@H](C)[C@H]1CC[C@H]2[C@@H]3CC=C4C[C@@H](O)CC[C@]4(C)[C@H]3CC[C@]12C` (stereo partly drawn) [22R-HC] registered an EC50 in assay [1] of 1320 ± 250 nM.

Turning to `O=C(Nc1ccc([N+](=O)[O-])cc1O)Nc1ccccc1Br` [SB225002], in assay [2], the IC50 amounted to 16.6 ± 3.64 nM.
